Experimental data as given in publication PMC2225439, “Amyloid as a Depot for the Formulation of Long-Acting Drugs” (PLoS Biology, 2008).

Columns and labels:
[1] = Congo red (CR) binding; assay type: physicochemical; parameters: key to Congo Red: b, binding; n, not binding; settings: analogs incubated for 30 d, 1 mg/ml in 5% D-mannitol, 0.01% sodium azide, room temperature; UV 300–700 nm and by eye; three independent experiments
Description: To confirm amyloid formation by GnRH analogs, CR binding was measured. CR, like Thio T, is a dye routinely used to detect β-sheet–rich assemblies. CR binding can be measured by the “red shift” change of its absorption maximum from 490 to 540 nm, by an increase of the dye's molar absorptivity, and in favorable cases by eye. All three types of measurements were performed with GnRH analogs incubated for 30 d. […] However, five short-acting GnRH analogs, i.e., S3, S4, S6, S10, and S11, bind CR, showing that some short-acting GnRH-analogs are able to form amyloids after prolonged incubation (see also below). In contrast to short-acting analogs, all long-acting analogs bind CR.
GnRH analogs were dissolved in a glass tube in 1 ml of 5% D-mannitol and 0.01% sodium azide at a concentration of 1 mg/ml. The GnRH analogs were then incubated at room temperature without stirring. The fibril formation was monitored by EM, CR, and time-resolved by Thio T binding studies. Three independent experiments were performed for each sample.
A 5-μl aliquot of peptide sample was mixed with 80 μl of PBS buffer containing 10% ethanol. Then 15 μl of a 100 μM CR solution (filtered through 0.2-μm filter) in PBS containing 10% ethanol was added. After mixing, UV was measured from 300–700 nm. For the measurement of the CR-only spectrum, 15 μl of CR solution with 85 μl of PBS containing 10% ethanol was prepared. As a control, a 5-μl aliquot of GnRH analog mixed with 95 μl of PBS containing 10% ethanol was measured. Three independent experiments were performed for each sample. In addition to the UV measurements, pictures of the cuvette containing the peptide sample and CR were taken to visually show the CR binding to the amyloids.

[2] = target: T1, wild-type GnRH (Homo sapiens, UniProt P01148); experiment: Seeding of wild-type GnRH by L20 fibrils; settings: matured fibrils 5% v/v with GnRH solution 95% v/v, 5% D-mannitol, room temperature without stirring, 1 mo; Thio T and EM
T1 construct: gonadotropin-releasing hormone (GnRH); made in house; host or cells: chemical solid-phase synthesis (no expression host)
From the text: Another concern for the application of amyloids in the formulation of long-acting drugs is the potential multiplication and spread of amyloids through seeding. Only a small amount of fibrillar seed is needed to induce and accelerate self-polymerization in the presence of monomeric amyloid protein/peptide. Within the context of GnRH, perhaps amyloids of the injected GnRH analogs may act as the seeds and the host GnRH as the reservoir of the free monomer. To mimic this situation in vitro, a seeding reaction was set up with a small amount of matured, long-acting L20 fibrils (5% v/v) in presence of a solution of wild-type GnRH (95% v/v). […]
A total of 5 μl of matured L20 fibril solution at a concentration of 1 mg/ml in 5% D-mannitol, 0.01% sodium azide was mixed with 95 μl of freshly prepared GnRH solution in the same solution condition followed by incubation at room temperature without stirring. […] Once a week, a 10-μl aliquot was diluted into 500 μl water containing 5% D-mannitol, 0.01% sodium azide, and 10 μl of 1 mM Thio T to measure the Thio T fluorescence as described above. […] The protein concentration of the supernatant was measured by UV absorbance with ɛ280 of 6,500 M^−1cm^−1. […] The formation of amyloid was monitored regularly for the mixture (α-Syn+L20) and α-Syn by Thio T binding.

Ac-DNal-DCpa-Agl(Nic)-Ser-Aph(Ac)-DAph(Ac)-Leu-ILys-Pro-DAla-NH2 [L20]
Congo Red [1]: b
seeding of wild-type GnRH [2]: unable to seed wild-type GnRH
